Data on eleven compounds can be found in patent US20220289746A1, “PYRROLIDINE DERIVATIVES” (Hoffmann-La Roche Inc., priority 2019, published 2022).

Assay [1] concerns the target T1, human M4 receptor (Homo sapiens, UniProt P08173).
T1 sequence (P08173 1-479): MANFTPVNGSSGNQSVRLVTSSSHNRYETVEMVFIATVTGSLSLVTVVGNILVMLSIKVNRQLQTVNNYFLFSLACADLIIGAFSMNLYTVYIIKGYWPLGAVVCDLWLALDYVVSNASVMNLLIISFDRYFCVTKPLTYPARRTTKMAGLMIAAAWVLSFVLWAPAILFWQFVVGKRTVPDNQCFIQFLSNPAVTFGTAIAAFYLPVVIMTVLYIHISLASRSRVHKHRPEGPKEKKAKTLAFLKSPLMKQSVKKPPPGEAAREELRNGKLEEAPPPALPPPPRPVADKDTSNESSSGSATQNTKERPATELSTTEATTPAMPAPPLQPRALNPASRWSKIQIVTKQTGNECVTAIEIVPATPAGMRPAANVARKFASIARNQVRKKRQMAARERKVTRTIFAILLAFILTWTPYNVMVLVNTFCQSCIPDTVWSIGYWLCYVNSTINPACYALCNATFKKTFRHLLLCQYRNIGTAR
Nature of the assay: cAMP assay for M4 positive allosteric modulators (M4 PAM cAMP assay). In kind it is cell-based. As to conditions: Table 1; CHO-K1 cells expressing human M4; forskolin 7.5 μM + acetylcholine EC20 (0.2 nM). Details: expressed in transfected cells; host or cells: CHO-K1. Here is the method:
The potency of M4 PAMs was determined using a cell-based cyclic adenosine monophosphate assay. The assay was performed with CHO-Kl cells stably expressing untagged human M4 receptor and cAMP was quantified using the Nano-TRF Detection Assay kit (Roche, Cat. No. 05214386) as described in the kit instructions. The cells were grown in Ham's F-12 Nutrient mix supplemented with 10% FBS and 200 μg/ml geneticin until they reached 80% confluency. The cells were washed with PBS, detached with accutase and resuspended in assay buffer consisting of HBSS and 0.1% BSA. They were then seeded in black 384-well plates (Corning, Cat. No. 3764) at a density of 20,000 cells/20 μl per well until the addition of compounds.
Test compounds were serially diluted 1:2 in 100% DMSO and spotted in 384-well plates at 0.5 μl/well. The compounds were then diluted in water containing IBMX (Sigma, Cat. No. 17018) and a sample (5 μl) was added to the cells for 15 minutes at 37° C./5% CO2. After this incubation the cells were stimulated with a combination of forskolin (7.5 μM) and acetylcholine EC20 (0.2 nM) in assay buffer for 30 minutes at 37° C./5% CO2. The assay was stopped by adding cAMP detection mix (15 μl/well, containing detergents for cell lysis) for one hour at RT.
The test plates were read using a SpectraMax i3x reader (Molecular Devices). The exported raw data was used to calculate the FRET signal based on the P-factor as per cAMP kit instructions. The data was normalized to the activity of acetylcholine plus forskolin, with 2 nM of acetylcholine plus 7.5 μM forskolin defined as 100% activity. Dose response curves were fitted to the percent activity data of the compounds using a sigmoidal dose response model (XLfit, IDBS) and the data were reported as EC50 and percent efficacy.

For assay [2], the target named is T1, human M4 receptor. Nature of the assay: Calcium flux assay using fluorescent imaging (M4 PAM FLIPR assay). In kind it is cell-based. Details: expressed in transfected cells; host or cells: CHO (monoclonal line, clone 2). As to conditions: Table 1; CHO cells expressing human M4+Gqi5; acetylcholine EC20. Here is the method: CHO cells were transfected with expression plasmid encoding the human M4 receptor and a Gqi5 construct to redirect Gi signaling to calcium. Stable cells were cloned by limiting dilution to yield a monoclonal cell line expressing human M4+Gqi5 (clone 2). The stable cells were grown in DMEM containing 10% FBS, 200 ug/ml Geneticin and 800 ug/ml Hygromycin at 37° C. in a 10% CO2 incubator at 95% humidity.
Calcium Flux Assay Using Fluorescent Imaging (“M4 PAM FLIPR” Assay)
On the afternoon before the assay, cells were plated at a density of 50,000 cells/well into black 96 well plates with clear bottoms to yield a confluent monolayer the next day. Hanks balanced salt solution, without phenol red, containing 20 mM HEPES (pH 7.3) and 2.5 mM probenecid (assay buffer) was prepared fresh for each experiment. Compound dilutions were made using a Beckman Biomek 2000 laboratory automation workstation, in assay buffer. The dye-loading buffer consisted of a final concentration of 2 μM Fluo-4-AM (dissolved in DMSO and pluronic acid) and 65 μg/ml amidoblack in assay buffer. The existing culture media was removed from the wells and 100 μl of the dye-loading buffer was added to each well and incubated for approximately 90 min at 37° C. in a 5% CO2 incubator at 95% humidity.
Calcium flux in the dye-loaded cells was measured with the fluorescence reader Hamamatsu FDSS 7000. To test compounds as agonists, compound addition (25 μl) was made 10 s into the fluorescent measurements and fluorescent response was recorded for 3 minutes. The fluorescence data was expressed as percentage of the fluorescence obtained by an EC100 concentration (3 μM) of the endogenous full agonist acetylcholine. Each test compound concentration-response curve was constructed using a four parameter logistic equation in Microsoft Excel XLFit as follows:
Y=Minimum+((Maximum−Minimum)/(1+10^(LogEC50−X)nH)).
The concentration of agonist that produced a half-maximal response is represented by the EC50 value. Maximum and minimum are the maximum and minimum fluorescence signal in % respectively. nH is the Hill slope.
To measure positive allosteric modulator activity 25 μl of an EC20 concentration of the endogenous agonist acetylcholine is added to the cells already pre-incubated with the test compound for 15 minutes.
The M4 PAM dose response is constructed using the agonist dose-response equation above. The concentration of PAM that produced a half-maximal response is represented by the EC50 value and the maximum signal measured is the PAM efficacy expressed in % of the EC100 (3 μM) acetylcholine response. • cAMP Assay for M4 Positive Allosteric Modulators (“M4 PAM cAMP” Assay)

Each structure is given as a SMILES string.

In general, EC50 refers to the concentration giving half of the maximal effect.

Consider `COc1nccc(N2CC[C@@H](C(=O)N3Cc4nc(C)c(Cl)c(C)c4C3)C2)n1` [Example 25, (3-chloro-2,4-dimethyl-5,7-dihydropyrrolo[3,4-b]pyridin-6-yl)-[(3R)-1-(2-methoxypyrimidin-4-yl)pyrrolidin-3-yl]methanone], for which the EC50 on human M4 receptor [1] was found to be 4770 nM; at human M4 receptor [2] it was 1600 nM.

For `COCc1nc2c(c(C)c1Cl)CN(C(=O)[C@@H]1CCN(c3cc(C)ncn3)C1)C2` [Example 53, [3-chloro-2-(methoxymethyl)-4-methyl-5,7-dihydropyrrolo[3,4-b]pyridin-6-yl]-[(3R)-1-(6-methylpyrimidin-4-yl)pyrrolidin-3-yl]methanone], the 50% effective concentration (EC50) at human M4 receptor [1] came out at 503 nM; at human M4 receptor [2], 184 nM.

With `Cc1ncncc1N1CC[C@@H](C(=O)N2Cc3nc(C)c(Cl)c(C)c3C2)C1` [Example 37, (3-chloro-2,4-dimethyl-5,7-dihydropyrrolo[3,4-b]pyridin-6-yl)-[(3R)-1-(4-methylpyrimidin-5-yl)pyrrolidin-3-yl]methanone], the results for the EC50 on human M4 receptor [1] and on human M4 receptor [2] were 405 nM and 394 nM, respectively.

On to `COCc1nc2c(c(C)c1Cl)CN(C(=O)[C@@H]1CCN(c3cncnc3)C1)C2` [Example 58, [3-chloro-2-(methoxymethyl)-4-methyl-5,7-dihydropyrrolo[3,4-b]pyridin-6-yl]-[(3R)-1-pyrimidin-5-ylpyrrolidin-3-yl]methanone], for which the EC50 turned out to be 179 nM on human M4 receptor [1] and 74 nM on human M4 receptor [2].

`COc1cncc(N2CC[C@@H](C(=O)N3Cc4nc(C)c(Cl)c(C)c4C3)C2)c1` [Example 18, (3-chloro-2,4-dimethyl-5,7-dihydropyrrolo[3,4-b]pyridin-6-yl)-[(3R)-1-(5-methoxy-3-pyridyl)pyrrolidin-3-yl]methanone]: the 50% effective concentration (EC50) on human M4 receptor [1] was 166 nM; on human M4 receptor [2] it was 549 nM.

Take `Cc1nc2c(c(C)c1Cl)CN(C(=O)[C@@H]1CCN(c3cncc(C(F)(F)F)c3)C1)C2` [Example 14, (3-chloro-2,4-dimethyl-5,7-dihydropyrrolo[3,4-b]pyridin-6-yl)-[(3R)-1-[5-(trifluoromethyl)-3-pyridyl]pyrrolidin-3-yl]methanone]: the values for the EC50 at human M4 receptor [1] and on human M4 receptor [2] were 2180 nM and 3520 nM, respectively.

In the case of `COCc1nc2c(c(C)c1Cl)CN(C(=O)[C@@H]1CCN(c3ccnnc3)C1)C2` [Example 59, [3-chloro-2-(methoxymethyl)-4-methyl-5,7-dihydropyrrolo[3,4-b]pyridin-6-yl]-[(3R)-1-pyridazin-4-ylpyrrolidin-3-yl]methanone], the EC50 on human M4 receptor [1] turned out to be 881 nM; at human M4 receptor [2] it was 209 nM.

For the compound `Cc1nc2c(c(C)c1Cl)CN(C(=O)[C@@H]1CCN(c3cc(C(F)(F)F)ncn3)C1)C2` [Example 27, (3-chloro-2,4-dimethyl-5,7-dihydropyrrolo[3,4-b]pyridin-6-yl)-[(3R)-1-[6-(trifluoromethyl)pyrimidin-4-yl]pyrrolidin-3-yl]methanone], the results for the EC50 at human M4 receptor [1] and at human M4 receptor [2] were 230 nM and 330 nM, respectively.

For the compound `Cc1nc2c(c(C)c1Cl)CN(C(=O)[C@@H]1CCN(c3nccc(C(F)(F)F)n3)C1)C2` [Example 50, (3-chloro-2,4-dimethyl-5,7-dihydropyrrolo[3,4-b]pyridin-6-yl)-[(3R)-1-[4-(trifluoromethyl)pyrimidin-2-yl]pyrrolidin-3-yl]methanone], the results for the EC50 on human M4 receptor [1] and on human M4 receptor [2] were 4380 nM and 1820 nM, respectively.

For the compound `Cc1nc2c(c(C)c1Cl)CN(C(=O)[C@@H]1CCN(c3cnc(C(F)(F)F)cn3)C1)C2` [Example 47, (3-chloro-2,4-dimethyl-5,7-dihydropyrrolo[3,4-b]pyridin-6-yl)-[(3R)-1-[5-(trifluoromethyl)pyrazin-2-yl]pyrrolidin-3-yl]methanone], the EC50 on human M4 receptor [1] was 1820 nM; at human M4 receptor [2], 906 nM.

On to `Cc1nc2c(c(C)c1Cl)CN(C(=O)[C@@H]1CCN(c3ccc(C(F)(F)F)nc3)C1)C2` [Example 9, (3-chloro-2,4-dimethyl-5,7-dihydropyrrolo[3,4-b]pyridin-6-yl)-[(3R)-1-[6-(trifluoromethyl)-3-pyridyl]pyrrolidin-3-yl]methanone], for which the half-maximal effective concentration (EC50) on human M4 receptor [1] is 1070 nM; on human M4 receptor [2] it was 1360 nM.
